Some test systems named below: A549 NSCLC; LOX IMVI melanoma; SK-OV-3 ovarian; OVCAR-3 ovarian; U251 CNS; 786-0 renal; UACC-62 melanoma; SK-MEL-28 melanoma; SR leukemia; HL-60(TB) leukemia; SN12C renal; MDA-N.
Common to all, as to assay: NCI anticancer screen, dose series, 48 h

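Cells were grown in 96-well plates and exposed to each compound for 48 hours at five concentrations; endpoints were interpolated linearly between bracketing concentrations, or set to the highest concentration if not reached. TGI: concentration producing complete growth inhibition.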

Regarding `CCOC(=O)c1ccc(-n2c(SCC)nc3sc(C)c(C)c3c2=O)cc1`, the TGI in the experiment on A549 NSCLC, in the experiment with LOX IMVI melanoma, in the experiment with SK-OV-3 ovarian, in the experiment with OVCAR-3 ovarian, in the experiment with U251 CNS and in the experiment with 786-0 renal was above 100 µM in each case. Further, the TGI in the experiment on UACC-62 melanoma, with SK-MEL-28 melanoma, with SR leukemia, in the experiment on HL-60(TB) leukemia and in the experiment on SN12C renal was above 100 µM each time.

Regarding `COc1cc(O)c2c(=O)cc(C3(O)C=CC(=O)C=C3)oc2c1`, the TGI stood at 0.464 µM in the experiment on LOX IMVI melanoma; 13.8 µM with SK-OV-3 ovarian; 0.0808 µM in the experiment with U251 CNS; 0.876 µM with 786-0 renal; 0.786 µM with UACC-62 melanoma; 0.578 µM with SK-MEL-28 melanoma. In addition, the values for the TGI with SR leukemia and in the experiment on HL-60(TB) leukemia were 0.126 µM and 2.75 µM, respectively.

On to `N#CC(Cc1ccccc1Br)N(CCC1=CCCCC1)C(c1ccccc1)c1ccccc1` (stereo not drawn), for which the TGI in the experiment with A549 NSCLC, in the experiment on SK-OV-3 ovarian, in the experiment on OVCAR-3 ovarian, with U251 CNS, in the experiment on 786-0 renal and in the experiment on UACC-62 melanoma was above 100 µM throughout. Further, the TGI with SK-MEL-28 melanoma and with MDA-N was above 100 µM each time.

As to `NNc1[nH]c(=S)[nH]c1C(N)=O`, the TGI in the experiment on A549 NSCLC, in the experiment with LOX IMVI melanoma, in the experiment on SK-OV-3 ovarian, in the experiment on OVCAR-3 ovarian, in the experiment with U251 CNS and in the experiment with 786-0 renal was above 100 µM throughout. Further, the TGI in the experiment with UACC-62 melanoma, with SK-MEL-28 melanoma, in the experiment on HL-60(TB) leukemia and in the experiment with SN12C renal was above 100 µM each time.

For `CC(C)C(/C=C/c1ccc(Br)cc1)=N\NC(N)=O`, the TGI in the experiment with A549 NSCLC, in the experiment on LOX IMVI melanoma, in the experiment with SK-OV-3 ovarian, in the experiment on U251 CNS, in the experiment on 786-0 renal and in the experiment with UACC-62 melanoma was above 100 µM throughout. The TGI with SK-MEL-28 melanoma, with SR leukemia, in the experiment on HL-60(TB) leukemia and in the experiment with SN12C renal was above 100 µM throughout.

As to `[N-]=[N+]=NC(CBr)c1cn([C@H]2C[C@H](O)[C@@H](CO)O2)c(=O)[nH]c1=O` (stereo partly drawn), the TGI with A549 NSCLC, with LOX IMVI melanoma, with SK-OV-3 ovarian, in the experiment on OVCAR-3 ovarian, with U251 CNS and in the experiment with 786-0 renal was above 100 µM throughout. For the same compound, the TGI with UACC-62 melanoma, with SK-MEL-28 melanoma, in the experiment on SR leukemia, with HL-60(TB) leukemia and in the experiment with SN12C renal was above 100 µM throughout.

With `C/C=C/C(=O)N1C(=O)OC[C@@H]1c1ccccc1`, the TGI with A549 NSCLC came to 36.3 µM; in the experiment with LOX IMVI melanoma, 35 µM; in the experiment on SK-OV-3 ovarian, 33.3 µM; in the experiment with OVCAR-3 ovarian, 33.7 µM; in the experiment with U251 CNS it was 48.5 µM; in the experiment with 786-0 renal, 35 µM. Also, the TGI in the experiment with SK-MEL-28 melanoma is 45.5 µM; with MDA-N it was 43.8 µM; in the experiment with HL-60(TB) leukemia it was 43 µM; in the experiment on SN12C renal it was 37.2 µM.

Consider `COc1ccc([C@@]23OC[C@@H]4[C@@H](OC[C@@H]42)c2cc(OC)c(OC)cc23)cc1OC`, for which the TGI with A549 NSCLC, in the experiment on LOX IMVI melanoma, in the experiment with SK-OV-3 ovarian, in the experiment on OVCAR-3 ovarian, with U251 CNS and with 786-0 renal was above 100 µM in each case. In addition, the TGI with UACC-62 melanoma, in the experiment on SK-MEL-28 melanoma, in the experiment with SR leukemia and in the experiment on HL-60(TB) leukemia was above 100 µM in each case.

Turning to `COc1cc2c(cc1OC)C(N)CC2=O` (stereo not drawn), the TGI with A549 NSCLC, in the experiment with LOX IMVI melanoma, in the experiment with SK-OV-3 ovarian, in the experiment with OVCAR-3 ovarian, in the experiment with U251 CNS and with 786-0 renal was above 100 µM each time. Also, the TGI in the experiment on UACC-62 melanoma, with SK-MEL-28 melanoma, with SR leukemia and with SN12C renal was above 100 µM in each case.

For `CSc1nc2[nH]c(=O)c(C)nc2c(=O)[nH]1`, the TGI in the experiment on A549 NSCLC, in the experiment with LOX IMVI melanoma, in the experiment on SK-OV-3 ovarian, in the experiment with OVCAR-3 ovarian, with U251 CNS and in the experiment on 786-0 renal was above 100 µM in each case. For the same compound, the TGI with UACC-62 melanoma, in the experiment with SK-MEL-28 melanoma, in the experiment with SR leukemia, with HL-60(TB) leukemia and with SN12C renal was above 100 µM in each case.

`O=C1CC(=O)N(CCc2ccccc2)S(=O)(=O)N1CCc1ccccc1`: the TGI with A549 NSCLC amounted to 64.8 µM; in the experiment on LOX IMVI melanoma, 3.72 µM; in the experiment with SK-OV-3 ovarian it was 61 µM; in the experiment with OVCAR-3 ovarian, 36.8 µM; with U251 CNS, 30.5 µM; with 786-0 renal it was 30.8 µM. The TGI with UACC-62 melanoma was 77.7 µM; in the experiment with SK-MEL-28 melanoma it was above 100 µM; in the experiment with SR leukemia, 48.2 µM; in the experiment on HL-60(TB) leukemia, 38.3 µM; in the experiment with SN12C renal it was above 100 µM.

Turning to `CC1(C)CC(=O)c2c(nc(SSc3nc4c(c(-c5ccccc5)c3C#N)C(=O)CC(C)(C)C4)c(C#N)c2-c2ccccc2)C1`, the TGI in the experiment with A549 NSCLC, in the experiment on LOX IMVI melanoma, with SK-OV-3 ovarian, in the experiment on OVCAR-3 ovarian, in the experiment on U251 CNS and in the experiment on 786-0 renal was above 10 µM each time. The TGI with SK-MEL-28 melanoma, with HL-60(TB) leukemia and in the experiment with SN12C renal was above 10 µM in each case.

As for `COc1cc(/C=C2/C(=O)N(C(=O)c3ccc(Cl)cc3)N=C2C)cc(OC)c1OC`, the TGI in the experiment on A549 NSCLC, in the experiment with LOX IMVI melanoma, in the experiment with SK-OV-3 ovarian, in the experiment on OVCAR-3 ovarian, with U251 CNS and with 786-0 renal was above 100 µM throughout. Besides, the TGI with UACC-62 melanoma, with SK-MEL-28 melanoma, with HL-60(TB) leukemia and in the experiment with SN12C renal was above 100 µM in each case.

Regarding `O=C(O)C12CCCC(CCC1)C2`, the TGI in the experiment with A549 NSCLC, in the experiment with LOX IMVI melanoma, in the experiment on SK-OV-3 ovarian, with OVCAR-3 ovarian, in the experiment on U251 CNS and in the experiment on UACC-62 melanoma was above 100 µM throughout. In addition, the TGI in the experiment on SK-MEL-28 melanoma, in the experiment with HL-60(TB) leukemia and in the experiment with SN12C renal was above 100 µM each time.

Source of the values: PubChem BioAssay (NCI).
